Measurements from PubChem BioAssay AID1508612.

Experiment: passive permeability, PAMPA, ADME assay (AID 1508612)
Details: pH 7.4, 30.0 min, 50.0 µM

| Papp [×10⁻⁶ cm/s] | Compound |
| --- | --- |
| 11.5 | Cc1cc(NS(=O)(=O)c2ccc(NC(=O)Cc3ccc(Cl)c(F)c3)cc2)no1 |
| > 1000 | COc1cccc(CN2CCCC(c3nc(-c4ccncc4)ncc3-c3ccccc3)C2)c1O (configuration not stated) |
| > 1000 | CC1CCN(C(=O)c2ccc(-c3ccc(N4CCSCC4)nc3)cc2)CC1 |
| 74.9 | Cc1ccc2[nH]c(-c3ccccc3)cc(=O)c2c1 |
| 905 | O=C(NCCCNc1nc(Nc2cccc(CN3CCOCC3)c2)ncc1C1CC1)C1CCC1 |
| 41.6 | Oc1c(C(Nc2nccs2)c2ccc(C(F)(F)F)cc2)ccc2cccnc12 (configuration not stated) |
| 732 | Cn1ccc2c(C(=O)NCc3cccnc3)nc(-c3ccccc3C#N)cc21 |
| < 1 | CCCCNC(=O)CN1CCN(c2ncc(NC(=O)c3ccc(Cl)cc3)cc2C(=O)O)CC1 |
| > 1000 | COc1ccc(-c2csc(NC(=O)c3ccncc3NS(=O)(=O)c3ccc(C)cc3)n2)cc1 |
| 472 | O=C(c1ccc2c(c1)ncn2-c1ccccc1)N1CCCCC1 |
| 139 | O=C(Nc1ccc(C(=O)N2CCCC2)cc1)c1ccccc1F |
| 80 | CC1=C(C(=O)Nc2ccccc2)C(c2ccc[nH]2)n2ncnc2N1 (configuration not stated) |
| > 1000 | Fc1ccc(CN2CCOC[C@H]2c2ncc(-c3ccc(Cl)s3)[nH]2)cc1 |
| 379 | N#Cc1ccccc1Nc1ncc(-c2cccc3ccccc23)o1 |
| 25.1 | c1cc(-c2cc(-c3ccncc3)c3cncn3c2)c2[nH]ncc2c1 |
| 58.9 | CSc1ccc(-c2cnc(N3CCC(C(N)=O)CC3)s2)cc1 |
| 245 | Cc1ccc(NC(=O)c2ccncc2NS(=O)(=O)c2ccc(C)cc2)cc1 |
| 969 | CC(C)(C)c1ccc(-n2cnc3cc(C(=O)N4CCCCC4)ccc32)cc1 |
| 455 | O=C1Nc2ccccc2/C1=C\c1ccc([N+](=O)[O-])cc1 |
| 352 | Nc1cc(CN2C(=O)c3ccccc3C2=O)cc(Cl)c1O |
| 1.18 | COc1ccc(-c2nc3c(c(SCC(=O)Nc4ccc(C(=O)O)cc4)n2)Cc2ccccc2O3)cc1 |
| 695 | Cc1ccc(-n2nc3c(=O)n(CCCC(=O)NC(C)c4ccccc4)nc(C)c3c2C)cc1 (configuration not stated) |

| Papp [×10⁻⁶ cm/s] | Compound |
| --- | --- |
| 153 | CC[C@H]1CN2CCC3CC(OC)C(OC)CC3[C@@H]2C[C@@H]1C[C@H]1NCCC2=C1CC(OC)=C(O)C2 (some centres not stated) |
| 11.6 | Fc1cc(Nc2nc(-c3ccncc3)nc3ccccc23)ccc1-c1ccnc(C(F)(F)F)c1 |
| 93.6 | Fc1ccc(-c2ccc(Nc3nc(-c4ccncc4)nc4ccccc34)cc2F)cc1 |
| 169 | O=C1CCCC2=C1C(c1[nH]ncc1Cl)N=C(Nc1nc3cc([S+](=O)([O-])N4CCOCC4)ccc3o1)N2 (configuration not stated) |
| 23.1 | CC1=C(C(=O)Nc2nnc(-c3ccccc3)s2)C(c2nn(C)cc2Cl)N=C(Nc2nc3ccccc3o2)N1 (configuration not stated) |
| 459 | O=C(Nc1nc(-c2ccccc2)cs1)c1ccncc1NS(=O)(=O)c1c(F)cc(F)cc1F |
| 887 | Cc1cccc(N2CCN(c3nc4ccccc4c4nnc(C)n34)CC2)c1C |
| > 1000 | O=C(c1nc(-c2ccc(Cl)nc2)c2ccccn12)N1CCCC1 |
| 436 | COc1ccc(-n2nc(C3CCCN(C(=O)c4cccc(OC)c4)C3)[nH]c2=O)cc1 (configuration not stated) |
| > 1000 | Cc1ccccc1C(=O)N1CCc2cc(-c3ccnc(NC(=O)Cc4ccccc4)n3)ccc21 |
| > 1000 | CCOc1ccc(CCNC(=O)c2ccc(C(=O)c3ccccc3)cc2)cc1OCC |
| > 1000 | Cc1ccc(N(C)S(=O)(=O)c2ccc(-c3cnc(C4CC4)o3)cc2)cc1 |
| 3.6 | COc1cnccc1-c1nc(Nc2ccc(F)c(F)c2)c2ccccc2n1 |
| 15.8 | NC(=O)COc1cccc(C2CC(=O)Nc3nc(N4CCCCC4)sc32)c1 (configuration not stated) |
| 1.15 | O=S(=O)(Nc1nccs1)c1ccc(NCc2ccccc2O)cc1 |
| 1.5 | CC1(C)CCC(CN2CCN(c3ccc(C(=O)NS(=O)(=O)c4ccc(NCC5CCOCC5)c([N+](=O)[O-])c4)c(Oc4cnc5[nH]ccc5c4)c3)CC2)=C(c2ccc(Cl)cc2)C1 |
| 740 | Cc1ccc(S(=O)(=O)Nc2cnccc2C(=O)Nc2nc(-c3nc4ccccc4s3)cs2)cc1 |
| 736 | CNC(=O)C1CCN(c2nc(-c3ccc(Br)cc3)cs2)CC1 |
| 587 | O=C(NC1CCCc2c1cnn2-c1ccc(O)cc1)c1ccccn1 (configuration not stated) |
| 629 | NC(=O)C1CCN(c2nc(-c3ccc4c(c3)OCCCO4)cs2)CC1 |
| 28.7 | CSc1ccc(C(=O)c2[nH]c(=O)[nH]c2C)cc1 |
| 604 | NC(=O)C1CCN(c2nc(-c3ccc([N+](=O)[O-])cc3)cs2)CC1 |

| Papp [×10⁻⁶ cm/s] | Compound |
| --- | --- |
| 171 | Fc1cc(Nc2nc(-c3ccncc3)nc3ccccc23)ccc1-n1cncn1 |
| < 1 | OCCNc1ncnc2c1ncn2[C@@H]1O[C@@H](CO)[C@H](O)[C@@H]1O |
| > 1000 | Brc1ccccc1-c1nc(NCc2ccc(-c3cccnc3)cc2)c2ccccc2n1 |
| 464 | COCCn1ccc2c(C3=CCOCC3)nc(-c3cccc(NC(C)=O)c3)cc21 |
| 106 | CS(=O)(=O)c1ccc2nc(NC(=O)C3CC3)sc2c1 |
| 460 | O=C1CCc2cc(S(=O)(=O)Nc3ccc(F)c(Cl)c3)ccc2N1 |
| 51.2 | Cc1ccc(S(=O)(=O)Nc2cnccc2C(=O)Nc2nc(-c3ccccc3F)cs2)cc1 |
| > 1000 | Cc1csc2nc(-c3cccc(NC(=O)c4cccc(F)c4)c3)cn12 |
| 22 | Cc1ccc(-c2csc(Nc3ccc(S(=O)(=O)Nc4nccs4)cc3)n2)cc1C |
| 385 | COc1ccccc1-n1cnc2cc(C(=O)N3CCCCC3)ccc21 |
| 202 | Fc1ccc(Nc2nc(-c3ccnc4ccccc34)nc3ccccc23)cc1F |
| 15.5 | Cc1ccc(Nc2nc(-c3ccncc3)nc3ccccc23)cc1F |
| < 1 | O=C(NCCCn1ccnc1)c1ccc(-c2ncc3cnc(-c4cccc(F)c4)cn23)cc1 |
| 11.1 | CCS(=O)(=O)N1CC(CC#N)(n2cc(-c3ncnc4[nH]ccc34)cn2)C1 |
| 2.11 | O=S(=O)(Nc1nccs1)c1ccc(NCc2cccc(F)c2O)cc1 |
| 177 | CCOc1ccc(CCNC(=O)c2ccnn2Cc2ccccn2)cc1OCC |
| 580 | CCOc1ccc(CCNC(=O)c2ccccc2)cc1OCC |
| 269 | O=[N+]([O-])c1ccc(/C=N/n2c(CO)nc3ccccc32)s1 |
| 887 | CCc1cccc(NC(=O)C(Cc2ccccc2)NS(=O)(=O)c2cccs2)c1 (configuration not stated) |
| > 1000 | COc1ccc(C(=O)Nc2nc(-c3ccccc3)cs2)c(OC)c1 |
| 15.7 | COc1ccc(C(=O)Nc2ccc3c(c2)N(C2CCCC2)C(=O)c2ccccc2S3)cc1OC |
| 6.63 | O=C(O)Cc1ccc2oc(-c3ccc(NC(=O)/C=C/c4ccc(Br)cc4)c(F)c3)nc2c1 |

| Papp [×10⁻⁶ cm/s] | Compound |
| --- | --- |
| > 1000 | Cn1nnnc1SCCCNCc1cccc(OCc2ccccc2Cl)c1 |
| 738 | COc1ccc(NC(=O)c2c(C)cccc2C)cc1[S+](=O)([O-])N1CCCCCC1 |
| > 1000 | CCN(CC)CCOc1ccc2c(=O)c3ccc(Cl)cc3n(CCN(CC)CC)c2c1 |
| 2.21 | O=[S+]([O-])(Nc1ccc(C2CCNCC2)cc1)c1ccc(NCc2ccc(Cl)cc2O)cc1 |
| 530 | COc1cc(-c2nc(-c3ccccc3)c(-c3cccs3)[nH]2)cc(OC)c1O |
| 991 | Cc1ccccc1N(C)C1CN([S+](=O)([O-])c2cccc(C(F)(F)F)c2)C1 |
| 4.69 | O=C(Nc1ccc(S(=O)(=O)Nc2nccs2)cc1)c1ccc2ccccc2c1 |
| > 1000 | CCOC(=O)c1c(C)c(-c2ccccc2)n(CC(=O)NCc2ccccc2)c1C |
| 19.3 | Cc1ccc(S(=O)(=O)Nc2cc3c(cc2C(=O)Nc2nc(-c4ccccc4)cs2)OCO3)cc1 |
| 34.6 | Cc1ccc(C)n1-c1cccc(C(=O)O)c1 |
| 181 | CC(C)(C)c1ccc(C(=O)Nc2ccc3c(c2)CCCN3C(=O)c2cccs2)cc1 |
| 939 | COC(=O)c1nc(-c2cccc3ccccc23)oc1OC |
| < 1 | COc1ccc(-c2ccc3nc(-c4cc(C)cc(C)c4)oc3c2)c(OC)c1OC |
| 67.7 | CCc1oc2ccccc2c1C(=O)c1cc(I)c(O)c(I)c1 |
| 26 | COC(=O)c1c(NC(=O)Cc2coc3cc(C)ccc23)sc2c1CCC2 |
| > 1000 | CC(C)(C)C(=O)N1CCN(c2nccc(Nc3ccccc3Cl)n2)CC1 |
| 235 | COc1ccc(C2c3c(oc4ccc(Cl)cc4c3=O)C(=O)N2CCCN(C)C)cc1OC (configuration not stated) |
| > 1000 | Cc1cnc(CNc2nc(-c3ccccc3Cl)nc3ccccc23)cn1 |
| 944 | Clc1ccccc1-c1nc(NCc2ccc(-c3cccnc3)cc2)c2ccccc2n1 |
| 868 | COc1cccc(CN(C)c2ccc([S+](=O)([O-])Nc3nccs3)cc2)c1O |
| > 1000 | CNC(=O)c1nn(C)c2c1C(C)(C)Cc1cnc(Nc3ccc(N4CCN(C)CC4)cc3)nc1-2 |
| 687 | CCC(=O)NC(c1ccc(OC)cc1)c1cc(Cl)c2cccnc2c1O (configuration not stated) |

| Papp [×10⁻⁶ cm/s] | Compound |
| --- | --- |
| > 1000 | COc1cccc(CNc2ccc(C(=O)Nc3nccs3)cc2)c1O |
| 989 | CCOC(=O)c1cc(-c2ccco2)nc2c1c(C)nn2CCC#N |
| > 1000 | Cc1ccc(N2CCC(CNc3nc(-c4ccccc4C(C)C)ncc3C)CC2)cn1 |
| 902 | COc1ccc2c(c1)N(C[C@H](C)CN(C)C)c1ccccc1S2 |
| 36.6 | COc1cccc(CNc2ccc(S(=O)(=O)Nc3ncc(-c4ccccc4)s3)cc2)c1O |
| 51 | O=C(NC1CCCc2c1[nH]c1c(Cl)cccc21)c1ccc2c(c1)OCO2 (configuration not stated) |
| > 1000 | COc1cc(OC)cc(-c2csc(N3CCC(C(N)=O)CC3)n2)c1 |
| 751 | COc1ccccc1NC(=O)C1=C(C)Nc2c(C(=O)Nc3cccc(C)c3)cnn2C1c1ccccc1Cl (configuration not stated) |
| 250 | Clc1cccc(Nc2nc(-c3ccncc3)nc3ccccc23)c1 |
| 225 | O=C([C@@H]1CCCN(c2ccc3[nH]c(C4(n5cc(Cl)cn5)CC4)nc3n2)C1)N1CCCC1 |
| 149 | COc1ccc(-c2ccc3ncc(Nc4ccc(C(N)=O)cc4)n3n2)cc1OC |
| 376 | Fc1ccc(Nc2nc(-c3ccncc3)nc3ccccc23)cc1F |
| 723 | CC(C)NC(=O)c1nc(-c2ccc(Cl)nc2)c2cnccn12 |
| 9.91 | COc1cc(=O)n2c(c1C(=O)N(C)Cc1cscn1)CCN(C(=O)c1ccc(C)cc1C)CC2 |
| 244 | CN(C)c1cccc(-c2ncnc(N3CCC(C(N)=O)CC3)n2)c1 |
| > 1000 | O=C(Nc1nc(-c2ccccc2)cs1)c1ccncc1NS(=O)(=O)c1ccccc1Cl |
| > 1000 | CC(C)(C)n1nc(-c2ccc(Cl)cc2)c2c(N)ncnc21 |
| 498 | O=C(CSc1ccccc1)Nc1nnc(COc2ccc(Cl)cc2)s1 |

| Compound | Papp [×10⁻⁶ cm/s] |
| --- | --- |
| C[C@H]1[C@@H](CCC(=O)Nc2ccc(F)cc2)O[C@@H]2O[C@]3(C)CC[C@@H]4[C@H](C)CC[C@@H]1[C@@]24OO3 | > 1000 |
